Measured values taken from article PMC6270892, “Penostatin Derivatives, a Novel Kind of Protein Phosphatase 1B Inhibitors Isolated from Solid Cultures of the Entomogenous Fungus Isaria tenuipes” (Molecules, 2014).
Read-outs that look alike come from different tables or passages of the source.

Columns and labels:
LAR = LAR (Homo sapiens, UniProt P10586); assay: LAR phosphatase inhibition assay; format: biochemical
Description: PTP1B activity was measured as the rate of hydrolysis of p-nitrophenyl phosphate (pNPP) in a 96-well microtiter plate format. Standard assays were conducted at room temperature in a total volume of 0.2 mL that contained HEPES buffer (50 mM, pH 7.2), NaCl (50 mM), EDTA (1 mM), DTT (1 mM), bovine serum albumin (1 mg/mL), pNPP (at various concentrations, Km) 1.4 (0.03 mM), and PTP1B (35 ng/mL). Sodium orthovanadate was used as the positive control. Inhibitors were added in DMSO at 100 times the final concentration. PTP1B activity was measured as the rate of inorganic phosphate released upon hydrolysis of the IR phosphopeptide, TRDIpYETDpYpYRK, using a Malachite Green method. The enzyme activity was estimated by measuring the absorbance at 405 nm with appropriate corrections. Each experiment was performed either in triplicate, and IC50 data were derived from three independent experiments.
Activities of LAR were measured as described above except that the HEPES buffer (50 mM) was at pH 6.8, and the enzyme was added at a concentration of 10 μg/mL. Activity of calcineurin (from Sigma Chemical Co.) was assayed using 4-methylumbelliferyl phosphate (0.8 mM) as a substrate in an assay mixture that contained Tris-HCl buffer (40 mM, pH 8.6), NaCl (100 mM), CaCl2 (0.5 mM), DTT (0.5 mM), bovine serum albumin (0.1 mg/mL), calmodulin (50 nM), and calcineurin (25 nM). Sodium orthovanadate was used as the positive control. Fluorescence at 450 nm was monitored with excitation at 400 nm. The color was allowed to develop at room temperature for 30 min, and the sample absorbances were determined at 650 nm using a plate reader (Molecular Devices, Sunnyvale, CA, USA). Each experiment was performed either in triplicate, and IC50 data were derived from three independent experiments.
(§1) Calculations. PTPase activities, based on a potassium phosphate standard curve, were expressed as nanomoles of phosphate released/min/mg protein. Inhibition of recombinant h-PTP1B by test compounds was calculated as percent of phosphatase control. A four-parameter nonlinear logistic regression of PTPase activities using SAS release 6.08, PROC NLIN, was used for determining IC50 values of the test compounds. The reported IC50 values show significant fit to the regression curve (p < 0.05).

PTP1B [1] = target: T1, PTP1B (Homo sapiens, UniProt P18031); assay: PTP1B inhibition assay (pNPP hydrolysis / Malachite Green); format: biochemical; settings: for selectivity between PTP1B and LAR: PTP1B versus LAR, in words; for IC50: mean ± SD of three replicates
T1 sequence (P18031 1-435): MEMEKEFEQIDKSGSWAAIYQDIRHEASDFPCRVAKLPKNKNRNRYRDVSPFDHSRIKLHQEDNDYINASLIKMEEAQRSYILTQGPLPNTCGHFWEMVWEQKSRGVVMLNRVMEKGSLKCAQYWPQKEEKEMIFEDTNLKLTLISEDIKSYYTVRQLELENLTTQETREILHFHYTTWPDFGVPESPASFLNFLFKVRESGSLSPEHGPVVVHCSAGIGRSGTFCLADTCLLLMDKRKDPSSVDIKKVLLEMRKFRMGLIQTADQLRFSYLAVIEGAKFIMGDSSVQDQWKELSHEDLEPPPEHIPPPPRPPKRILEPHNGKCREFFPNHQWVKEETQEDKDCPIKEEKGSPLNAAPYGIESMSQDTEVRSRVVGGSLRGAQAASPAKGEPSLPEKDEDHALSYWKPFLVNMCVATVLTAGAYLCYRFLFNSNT
Description: PTP1B activity was measured as the rate of hydrolysis of p-nitrophenyl phosphate (pNPP) in a 96-well microtiter plate format. […] Inhibitors were added in DMSO at 100 times the final concentration. PTP1B activity was measured as the rate of inorganic phosphate released upon hydrolysis of the IR phosphopeptide, TRDIpYETDpYpYRK, using a Malachite Green method. The enzyme activity was estimated by measuring the absorbance at 405 nm with appropriate corrections. Each experiment was performed either in triplicate, and IC50 data were derived from three independent experiments.
as §1, with “compounds.” for “compounds. The reported IC50 values show significant fit to the regression curve (p < 0.05).”

PTP1B [2] = test system: PTP1B; parameters: method as in PMID 20337577; settings: cited from earlier work
[3] = tested at 50 μg/mL, read-out: LAR inhibition

Sequence of LAR (P10586 30-1907, species assumed): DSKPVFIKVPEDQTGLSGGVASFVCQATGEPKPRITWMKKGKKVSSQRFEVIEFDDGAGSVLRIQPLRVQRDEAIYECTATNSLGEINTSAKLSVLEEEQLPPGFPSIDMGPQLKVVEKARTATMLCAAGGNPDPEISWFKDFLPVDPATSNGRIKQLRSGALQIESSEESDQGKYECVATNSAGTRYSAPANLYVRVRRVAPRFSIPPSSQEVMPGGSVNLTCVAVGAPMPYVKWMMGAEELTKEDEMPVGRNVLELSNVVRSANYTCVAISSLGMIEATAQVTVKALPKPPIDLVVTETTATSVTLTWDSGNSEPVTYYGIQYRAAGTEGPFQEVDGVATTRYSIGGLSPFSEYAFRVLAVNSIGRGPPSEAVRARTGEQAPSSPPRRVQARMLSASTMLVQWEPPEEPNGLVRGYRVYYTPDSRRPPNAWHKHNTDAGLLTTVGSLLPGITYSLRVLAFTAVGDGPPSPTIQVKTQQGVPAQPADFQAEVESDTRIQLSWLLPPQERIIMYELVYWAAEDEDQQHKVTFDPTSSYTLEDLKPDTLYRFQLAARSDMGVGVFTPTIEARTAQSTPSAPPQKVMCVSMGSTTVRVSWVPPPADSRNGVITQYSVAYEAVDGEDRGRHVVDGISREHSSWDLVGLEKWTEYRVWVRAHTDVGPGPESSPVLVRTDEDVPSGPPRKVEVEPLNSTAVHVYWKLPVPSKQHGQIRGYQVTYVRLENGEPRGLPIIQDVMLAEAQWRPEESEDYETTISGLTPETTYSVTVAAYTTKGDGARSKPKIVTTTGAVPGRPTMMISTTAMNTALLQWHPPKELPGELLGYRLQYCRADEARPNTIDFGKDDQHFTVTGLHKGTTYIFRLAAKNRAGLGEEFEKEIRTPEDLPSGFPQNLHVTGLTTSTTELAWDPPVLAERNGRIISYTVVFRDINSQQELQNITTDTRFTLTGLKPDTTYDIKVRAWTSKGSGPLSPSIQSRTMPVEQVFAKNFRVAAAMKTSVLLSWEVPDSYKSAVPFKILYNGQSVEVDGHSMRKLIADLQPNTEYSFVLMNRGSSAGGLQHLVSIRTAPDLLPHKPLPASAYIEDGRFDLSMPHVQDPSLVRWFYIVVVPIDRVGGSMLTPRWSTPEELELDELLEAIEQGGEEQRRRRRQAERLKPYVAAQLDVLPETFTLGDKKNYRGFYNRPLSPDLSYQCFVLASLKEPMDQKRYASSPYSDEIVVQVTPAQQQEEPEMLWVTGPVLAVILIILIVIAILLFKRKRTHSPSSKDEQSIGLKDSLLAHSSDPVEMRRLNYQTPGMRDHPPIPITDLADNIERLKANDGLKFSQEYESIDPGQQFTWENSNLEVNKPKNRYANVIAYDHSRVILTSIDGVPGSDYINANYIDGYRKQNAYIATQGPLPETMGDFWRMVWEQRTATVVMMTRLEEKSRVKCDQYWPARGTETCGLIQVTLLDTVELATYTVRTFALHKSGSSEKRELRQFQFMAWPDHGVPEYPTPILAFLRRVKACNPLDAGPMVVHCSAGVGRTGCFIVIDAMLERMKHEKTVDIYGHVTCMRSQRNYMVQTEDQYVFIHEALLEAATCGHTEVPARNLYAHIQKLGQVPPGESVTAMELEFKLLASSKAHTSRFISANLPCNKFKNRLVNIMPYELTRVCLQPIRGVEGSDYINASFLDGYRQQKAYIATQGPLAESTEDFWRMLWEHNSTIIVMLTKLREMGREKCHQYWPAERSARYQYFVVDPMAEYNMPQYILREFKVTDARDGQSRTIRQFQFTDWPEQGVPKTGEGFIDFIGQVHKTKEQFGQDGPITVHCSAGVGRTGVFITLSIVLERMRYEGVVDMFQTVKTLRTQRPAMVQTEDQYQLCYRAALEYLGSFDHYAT

Row | SMILES | IC50 (LAR; [3]) [µM] | selectivity between PTP1B and LAR (PTP1B [1]) | IC50 (PTP1B [1]) [µM] | IC50 (LAR; mean ± SD of three replicates, read-out: IC50 (μM) LAR) [µM] | IC50 (PTP1B [2]) [µM]
1 | CCCCCCC/C=C/[C@@H]1O[C@@]2(O)C(=O)C=C3C=CC[C@H]3[C@@H]2C=C1C [Compound 1, penostatin J] | > 146 | significant selectivity | 12.5 ± 0.9 | – | –
2 | CCCCCCC/C=C/[C@@H]1O[C@H]2C(=O)C=C3C[C@H](O)C[C@H]3[C@@H]2C=C1C [Compound 3, penostatin A] | > 145 | – | 15.9 ± 2.49 | – | –
4 | Cc1cc(-c2c3ccccc3c(Br)c3sc(C)c(C)c23)cc(C)c1O[C@H](Cc1ccccc1)C(=O)O [ertiprotafib] | – | – | – | – | 1.6

Now from value to molecule, other results behind:

Row | IC50 (LAR; [3]) [µM] | selectivity between PTP1B and LAR (PTP1B [1]) | IC50 (PTP1B [1]) [µM] | IC50 (LAR; mean ± SD of three replicates, read-out: IC50 (μM) LAR) [µM] | SMILES | IC50 (PTP1B [2]) [µM]
5 | – | significant selectivity | 0.37 ± 0.05 | 53.3 ± 4.06 | CCCCCCC/C=C/[C@@H]1O[C@H]2C(=O)C=C3C=CC[C@H]3[C@@H]2C=C1C [Compound 2, penostatin C] | –
6 | > 145 | – | 33.7 ± 7.33 | – | CCCCCCC/C=C/[C@@H]1O[C@H]2C(=O)C=C3C[C@@H](O)C[C@H]3[C@@H]2C=C1C [Compound 4, penostatin B] | –
